In patent publication US7989422B2, “Antibacterial agents” (Alchemia Limited, priority 2005, dated 2011):

Key:
Type in all cases: cell-based
[1] = test system: Staphylococcus aureus (MRSA) ATCC 33591; assay: MIC against MRSA, microbroth dilution; details: MIC class
Experimental: (§1) Testing was conducted to determine the in vitro antimicrobial activity of a series of compounds synthesised by Alchemia Pty Ltd. The antimicrobial activity of each compound was determined at a single concentration (128 μg/mL) in Mueller Hinton (MH) broth against the ATCC type strain of Staphylococcus aureus. […] Compounds showing activity at concentrations up to 32-64 μg/mL in the presence/absence of serum were then tested for MIC activity against a standard set of 5 microorganisms comprising of ATCC type strains of MRSA, Enterococcus faecalis, Enterococcus faecium, VRE and Escherichia coli. CLSI (formerly NCCLS) microbroth dilution technique was used.
(§2) Each compound is initially dissolved in 100 μL of DMSO. Each solution is then diluted further in 0.9 mL of sterile MH broth to give a total volume of 1 mL (1000 μg/mL) This stock solution is then further diluted in MH broth to give a test solution with final concentration of 128 μg/mL using the following formula: 0.5 ml stock in 3.4 ml MH broth
(§3) Each test organism was subcultured from the −70° C. deep freezer onto horse blood agar. The plates were streaked to obtain isolated colonies and incubated at 35° C. in non-CO2 incubator for 24 hours. A second subculture was carried out onto horse blood agar. For each test organism, 1-2 colonies were selected from an 18-24 hour culture and inoculated into 2 ml sterile MH broth. The turbidity was adjusted to 0.5 McFarland standard.
(§4) A 1:10 dilution in MH broth (200 μL in 2 ml MH) of the 0.5 McFarland control was prepared. 5 μL of this diluted solution was used to inoculate the trays.
(§5) The trays were prepared in a similar way as mentioned above and incubated at 35° C. in a non-CO2 incubator for 18-24 hours. The plates were examined for growth after the incubation time.
(§6) After 18-24 hour incubation 5 μL from each well was then inoculated onto horse blood agar and incubated for 18-24 hours at 35° C. in a non-CO2 incubator.
(§7) If the test organism is sensitive to the compound in the broth the growth will be inhibited. Similarly, if the organism grows on the antibiotic containing medium then it is resistant to this particular antibiotic.

E. Faecium 51299 VanB = assay: MIC against vancomycin-resistant enterococcus 51299 (VanB), microbroth dilution; details: MIC class; ATCC 51299 VanB
Experimental: as §1, §2, §3, §4, §5, §6, §7

[2] = test system: Enterococcus faecalis ATCC 29212; assay: MIC against E. faecalis, microbroth dilution; details: MIC class
Experimental: as §1, §2, §3, §4, §5, §6, §7

[3] = test system: Staphylococcus aureus ATCC 25923; assay: MIC against S. aureus, microbroth dilution in MH broth, without or with 5% horse serum; details: MIC class; S. aureus ATCC 25923
Experimental: as §1, §2, §3, §4
100 μL of sterile MH broth was added in columns 2-12. 200 μL of test solution was added in column 1. 100 μL was transferred in column 2 giving a ½ dilution. 100 μL from column 2 was then transferred to column 3 (¼ dilution). This dilution was carried on until column 12. A second tray containing the same test solution was inoculated in a similar manner using sterile MH broth with 5% heat inactivated horse serum. 5 μL of organism solution was then added to each well. The plates were then sealed and incubated at 35° C. in a non-CO2 incubator for 18-24 hours. The plates were examined for growth after the incubation time.
as §7

[4] = test system: Enterococcus faecium ATCC 35667; assay: MIC against E. faecium, microbroth dilution; details: MIC class
Experimental: as §1, §2, §3, §4, §5, §6, §7

Compound	S. Aureus 33591 MRSA activity [1]	E. Faecium 51299 VanB activity (E. Faecium 51299 VanB)	E. Fecalis 29212 activity [2]	S. Aureus 25923 activity [3]	E. Faecium 35667 activity [4]
CCCCCCCCCCCCC(N)C(=O)NC1C(CO)OCC(Nc2ccc(C(F)(F)F)cc2N)C1O (stereo not shown) [Compound 207]	+ (“+”: MIC (μg/mL): 64 ≧ MIC > 16)	+ (“+”: MIC (μg/mL): 64 ≧ MIC > 16)	+ (“+”: MIC (μg/mL): 64 ≧ MIC > 16)	+ (“+”: MIC (μg/mL): 64 ≧ MIC > 16)	+ (“+”: MIC (μg/mL): 64 ≧ MIC > 16)
O=S(=O)(NC1COC(CO)C(n2c(NCc3ccccc3)nc3cc(C(F)(F)F)cc(Cl)c32)C1O)c1ccc(C(F)(F)F)cc1 (stereo not shown) [Compound 274]				++ (“++”: MIC (μg/mL): MIC ≦ 16)	
O=S(=O)(NC1COC(CO)C(n2c(NCc3ccc(-c4ccccc4)cc3)nc3cc(C(F)(F)F)cc(Cl)c32)C1O)c1ccc(C(F)(F)F)cc1 (stereo not shown) [Compound 278]				++ (“++”: MIC (μg/mL): MIC ≦ 16)	
CCCCCC(C)CCC(=O)NC1C(CO)OCC(n2c(O)nc3cc(C(F)(F)F)cc(Cl)c32)C1O (stereo not shown) [Compound 177]	+ (“+”: MIC (μg/mL): 64 ≧ MIC > 16)	− (“−”: MIC (μg/mL): MIC > 64)	− (“−”: MIC (μg/mL): MIC > 64)	+ (“+”: MIC (μg/mL): 64 ≧ MIC > 16)	+ (“+”: MIC (μg/mL): 64 ≧ MIC > 16)
NC(CC(=O)Nc1nc2cc(C(F)(F)F)ccc2n1C1C(CO)OCC(NS(=O)(=O)c2ccc(C(F)(F)F)cc2)C1O)c1ccc(-c2ccccc2)cc1 (stereo not shown) [Compound 242]	++ (“++”: MIC (μg/mL): MIC ≦ 16)	− (“−”: MIC (μg/mL): MIC > 64)	++ (“++”: MIC (μg/mL): MIC ≦ 16)	++ (“++”: MIC (μg/mL): MIC ≦ 16)	++ (“++”: MIC (μg/mL): MIC ≦ 16)
NC(CC(=O)Nc1nc2cc(C(F)(F)F)ccc2n1C1C(CO)OCC(NC(=O)Nc2ccc(Cl)c(C(F)(F)F)c2)C1O)c1ccc(-c2ccccc2)cc1 (stereo not shown) [Compound 238]	++ (“++”: MIC (μg/mL): MIC ≦ 16)	− (“−”: MIC (μg/mL): MIC > 64)	++ (“++”: MIC (μg/mL): MIC ≦ 16)	− (“−”: MIC (μg/mL): MIC > 64)	− (“−”: MIC (μg/mL): MIC > 64)
O=S(=O)(NC1COC(CO)C(n2c(Nc3ccc(-c4ccccc4)cc3)nc3cc(C(F)(F)F)cc(Cl)c32)C1O)c1ccc(C(F)(F)F)cc1 (stereo not shown) [Compound 273]				++ (“++”: MIC (μg/mL): MIC ≦ 16)	
O=C(Nc1ccc(Cl)c(C(F)(F)F)c1)NC1COC(CO)C(n2c(NCc3cccc(Oc4ccccc4)c3)nc3cc(C(F)(F)F)ccc32)C1O (stereo not shown) [Compound 249]	++ (“++”: MIC (μg/mL): MIC ≦ 16)	++ (“++”: MIC (μg/mL): MIC ≦ 16)	++ (“++”: MIC (μg/mL): MIC ≦ 16)	++ (“++”: MIC (μg/mL): MIC ≦ 16)	++ (“++”: MIC (μg/mL): MIC ≦ 16)
O=C(NC1C(CO)OCC(n2c(O)nc3cc(C(F)(F)F)cc(Cl)c32)C1O)c1ccc(-c2ccccc2)cc1 (stereo not shown) [Compound 153]	+ (“+”: MIC (μg/mL): 64 ≧ MIC > 16)	− (“−”: MIC (μg/mL): MIC > 64)	+ (“+”: MIC (μg/mL): 64 ≧ MIC > 16)	+ (“+”: MIC (μg/mL): 64 ≧ MIC > 16)	− (“−”: MIC (μg/mL): MIC > 64)
CCCCCCCCCCNC1C(CO)OCC(NC(=O)Nc2ccc(Cl)c(C(F)(F)F)c2)C1O (stereo not shown) [Compound 50]	+ (“+”: MIC (μg/mL): 64 ≧ MIC > 16)	− (“−”: MIC (μg/mL): MIC > 64)	+ (“+”: MIC (μg/mL): 64 ≧ MIC > 16)	+ (“+”: MIC (μg/mL): 64 ≧ MIC > 16)	+ (“+”: MIC (μg/mL): 64 ≧ MIC > 16)
O=S(=O)(NC1COC(CO)C(n2c(NCc3cccc(Oc4ccccc4)c3)nc3cc(C(F)(F)F)cc(Cl)c32)C1O)c1ccc(C(F)(F)F)cc1 (stereo not shown) [Compound 277]				+ (“+”: MIC (μg/mL): 64 ≧ MIC > 16)	
CC(C)(C)c1ccc(CNc2nc3cc(C(F)(F)F)ccc3n2C2C(CO)OCC(NS(=O)(=O)c3ccc(C(F)(F)F)cc3)C2O)cc1 (stereo not shown) [Compound 267]				++ (“++”: MIC (μg/mL): MIC ≦ 16)	
O=S(=O)(NC1COC(CO)C(n2c(Nc3ccc(Cl)cc3)nc3cc(C(F)(F)F)cc(Cl)c32)C1O)c1ccc(C(F)(F)F)cc1 (stereo not shown) [Compound 271]				++ (“++”: MIC (μg/mL): MIC ≦ 16)	
Nc1ccccc1OC1C(NC(=O)Nc2ccc(Cl)c(C(F)(F)F)c2)COC(CO)C1NC(=O)CC(N)c1ccc(-c2ccccc2)cc1 (stereo not shown) [Compound 72]				++ (“++”: MIC (μg/mL): MIC ≦ 16)	
O=C(Nc1ccc(Cl)c(C(F)(F)F)c1)NC1COC(CO)C(n2c(NCc3cccc(Oc4ccccc4)c3)nc3cc(C(F)(F)F)cc(Cl)c32)C1O (stereo not shown) [Compound 258]				++ (“++”: MIC (μg/mL): MIC ≦ 16)	
O=C(Nc1ccc(Cl)c(C(F)(F)F)c1)NC1COC(CO)C(n2c(NCc3ccc4ccccc4c3)nc3cc(C(F)(F)F)cc(Cl)c32)C1O (stereo not shown) [Compound 261]				++ (“++”: MIC (μg/mL): MIC ≦ 16)	
O=S(=O)(NC1COC(CO)C(n2c(Nc3ccc(C(F)(F)F)cc3)nc3cc(C(F)(F)F)ccc32)C1O)c1ccc(C(F)(F)F)cc1 (stereo not shown) [Compound 263]				++ (“++”: MIC (μg/mL): MIC ≦ 16)	
O=S(=O)(NC1COC(CO)C(n2c(Nc3ccc(Cl)cc3)nc3cc(C(F)(F)F)ccc32)C1O)c1ccc(C(F)(F)F)cc1 (stereo not shown) [Compound 262]				+ (“+”: MIC (μg/mL): 64 ≧ MIC > 16)	
O=S(=O)(NC1COC(CO)C(n2c(NCc3ccc(Cl)cc3)nc3cc(C(F)(F)F)cc(Cl)c32)C1O)c1ccc(C(F)(F)F)cc1 (stereo not shown) [Compound 275]				++ (“++”: MIC (μg/mL): MIC ≦ 16)	
O=S(=O)(NC1COC(CO)C(n2c(NCc3ccc4ccccc4c3)nc3cc(C(F)(F)F)ccc32)C1O)c1ccc(C(F)(F)F)cc1 (stereo not shown) [Compound 270]				++ (“++”: MIC (μg/mL): MIC ≦ 16)	
O=S(=O)(NC1COC(CO)C(n2c(NCc3ccc(Cl)cc3)nc3cc(C(F)(F)F)ccc32)C1O)c1ccc(C(F)(F)F)cc1 (stereo not shown) [Compound 266]				++ (“++”: MIC (μg/mL): MIC ≦ 16)	
O=S(=O)(NC1COC(CO)C(n2c(NCc3ccccc3)nc3cc(C(F)(F)F)ccc32)C1O)c1ccc(C(F)(F)F)cc1 (stereo not shown) [Compound 265]				+ (“+”: MIC (μg/mL): 64 ≧ MIC > 16)	
CC(C)(C)c1ccc(CNc2nc3cc(C(F)(F)F)cc(Cl)c3n2C2C(CO)OCC(NS(=O)(=O)c3ccc(C(F)(F)F)cc3)C2O)cc1 (stereo not shown) [Compound 276]				+ (“+”: MIC (μg/mL): 64 ≧ MIC > 16)	
O=S(=O)(NC1COC(CO)C(n2c(Nc3ccc(-c4ccccc4)cc3)nc3cc(C(F)(F)F)ccc32)C1O)c1ccc(C(F)(F)F)cc1 (stereo not shown) [Compound 264]				++ (“++”: MIC (μg/mL): MIC ≦ 16)	
O=S(=O)(NC1COC(CO)C(n2c(Nc3ccc(C(F)(F)F)cc3)nc3cc(C(F)(F)F)cc(Cl)c32)C1O)c1ccc(C(F)(F)F)cc1 (stereo not shown) [Compound 272]				++ (“++”: MIC (μg/mL): MIC ≦ 16)	
O=S(=O)(NC1COC(CO)C(n2c(NCc3cccc(Oc4ccccc4)c3)nc3cc(C(F)(F)F)ccc32)C1O)c1ccc(C(F)(F)F)cc1 (stereo not shown) [Compound 268]				++ (“++”: MIC (μg/mL): MIC ≦ 16)	
O=S(=O)(NC1COC(CO)C(n2c(NCc3ccc4ccccc4c3)nc3cc(C(F)(F)F)cc(Cl)c32)C1O)c1ccc(C(F)(F)F)cc1 (stereo not shown) [Compound 279]				++ (“++”: MIC (μg/mL): MIC ≦ 16)	
O=C(Nc1ccc(Cl)c(C(F)(F)F)c1)NC1COC(CO)C(n2c(NCc3ccc(-c4ccccc4)cc3)nc3cc(C(F)(F)F)cc(Cl)c32)C1O (stereo not shown) [Compound 259]				++ (“++”: MIC (μg/mL): MIC ≦ 16)	
O=S(=O)(NC1COC(CO)C(n2c(NCc3ccc(-c4ccccc4)cc3)nc3cc(C(F)(F)F)ccc32)C1O)c1ccc(C(F)(F)F)cc1 (stereo not shown) [Compound 269]				++ (“++”: MIC (μg/mL): MIC ≦ 16)	
O=C(NC1C(CO)OCC(NS(=O)(=O)c2ccc(Cl)c(C(F)(F)F)c2)C1O)c1ccc(-c2ccc(Cl)cc2)cc1 (stereo not shown) [Compound 12]				+ (“+”: MIC (μg/mL): 64 ≧ MIC > 16)	
